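Following 48 hours of exposure in 96-well plates, responses at five concentrations were used to interpolate endpoints linearly. GI50 marks 50% less growth. The concentration for full growth arrest is given as TGI.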
Tests used:
Experiment in all cases: growth of human tumour cells (NCI), 48 h
[1] = tested on: NCI-H460 lung
[2] = tested on: DU-145 prostate
[3] = tested on: NCI-H226 lung
[4] = tested on: MOLT-4 leukemia
[5] = tested on: T-47D breast
[6] = tested on: NCI-H23 lung
[7] = tested on: SNB-19 CNS
[8] = tested on: SF-295 CNS
[9] = tested on: NCI-H522 lung
[10] = tested on: A498 renal
[11] = tested on: CAKI-1 renal
[12] = tested on: KM12 colon
[13] = tested on: SK-MEL-2 melanoma
[14] = tested on: HCC-2998 colon
[15] = tested on: SW-620 colon
[16] = tested on: SK-MEL-5 melanoma
[17] = tested on: U251 CNS
[18] = tested on: OVCAR-8 ovarian
[19] = tested on: K-562 leukemia
[20] = tested on: SK-MEL-28 melanoma
[21] = tested on: RPMI-8226 leukemia
[22] = tested on: HOP-62 NSCLC
[23] = tested on: EKVX NSCLC
[24] = tested on: MDA-MB-231 breast
[25] = tested on: SF-268 CNS
[26] = tested on: HCT-15 colon
[27] = tested on: HCT-116 colon
[28] = tested on: PC-3 prostate
[29] = tested on: COLO 205 colon
[30] = tested on: OVCAR-3 ovarian
[31] = tested on: SNB-75 CNS
[32] = tested on: HS 578T breast
[33] = tested on: NCI/ADR-RES ovarian
[34] = tested on: MALME-3M melanoma
[35] = tested on: RXF 393 renal
[36] = tested on: SK-OV-3 ovarian
[37] = tested on: OVCAR-4 ovarian
[38] = tested on: A549 NSCLC
[39] = tested on: ACHN renal
[40] = tested on: MDA-MB-435
[41] = tested on: LOX IMVI melanoma
[42] = tested on: M14 melanoma
[43] = tested on: UO-31 renal
[44] = tested on: HT29 colon
[45] = tested on: IGROV1 ovarian
[46] = tested on: OVCAR-5 ovarian
[47] = tested on: UACC-62 melanoma
[48] = tested on: TK-10 renal
[49] = tested on: BT-549 breast
[50] = tested on: UACC-257 melanoma
[51] = tested on: CCRF-CEM leukemia
[52] = tested on: HOP-92 NSCLC
[53] = tested on: 786-0 renal
[54] = tested on: SR leukemia
[55] = tested on: HL-60(TB) leukemia
[56] = tested on: SF-539 CNS

CCOP(=O)(OCC)C(Nc1ccc(C(=O)O)cc1)c1ccc(C(Nc2ccc(C(=O)O)cc2)P(=O)(OCC)OCC)cc1 (stereo not given)
TGI [1]: > 100 µM
TGI [2]: > 100 µM
TGI [3]: > 100 µM
TGI [4]: > 100 µM
TGI [5]: > 100 µM
TGI [6]: > 100 µM
TGI [7]: > 100 µM
TGI [8]: > 100 µM
TGI [9]: > 100 µM
TGI [10]: > 100 µM
TGI [11]: > 100 µM
TGI [12]: > 100 µM
TGI [13]: > 100 µM
TGI [14]: > 100 µM
TGI [15]: > 100 µM
TGI [16]: > 100 µM
TGI [17]: > 100 µM
TGI [18]: > 100 µM
TGI [19]: > 100 µM
TGI [20]: > 100 µM
TGI [21]: > 100 µM
TGI [22]: > 100 µM
TGI [23]: > 100 µM
TGI [24]: > 100 µM
TGI [25]: > 100 µM
TGI [26]: > 100 µM
TGI [27]: > 100 µM
TGI [28]: > 100 µM
TGI [29]: > 100 µM
TGI [30]: > 100 µM
TGI [31]: > 100 µM
TGI [32]: > 100 µM
TGI [33]: > 100 µM
TGI [34]: > 100 µM
TGI [35]: > 100 µM
TGI [36]: > 100 µM
TGI [37]: > 100 µM
TGI [38]: > 100 µM
TGI [39]: > 100 µM
TGI [40]: > 100 µM
TGI [41]: > 100 µM
TGI [42]: > 100 µM
TGI [43]: > 100 µM
TGI [44]: > 100 µM
TGI [45]: > 100 µM
TGI [46]: > 100 µM
TGI [47]: > 100 µM
TGI [48]: > 100 µM
TGI [49]: > 100 µM
TGI [50]: > 100 µM
TGI [51]: > 100 µM
TGI [52]: > 100 µM
TGI [53]: > 100 µM

C=C1C(=O)O[C@H]2[C@H]1CC/C(COC(=O)NCc1cc(OC)cc(OC)c1)=C\CC[C@@]1(C)O[C@@H]21
GI50 [1]: 3.01 µM
TGI [1]: 11.6 µM
GI50 [2]: 0.724 µM
TGI [2]: 2.03 µM
GI50 [3]: 2.02 µM
TGI [3]: 5.49 µM
GI50 [4]: 2 µM
TGI [4]: 5.55 µM
GI50 [5]: 1.85 µM
TGI [5]: 4.83 µM
GI50 [6]: 1.84 µM
TGI [6]: 4.32 µM
GI50 [7]: 5.32 µM
TGI [7]: 22.2 µM
GI50 [54]: 0.32 µM
TGI [54]: 2.91 µM
GI50 [8]: 7.78 µM
TGI [8]: 22.3 µM
GI50 [9]: 0.349 µM
TGI [9]: 1.49 µM
GI50 [10]: 2.11 µM
TGI [10]: 5.8 µM
GI50 [11]: 1.59 µM
TGI [11]: 3.1 µM
GI50 [12]: 2.8 µM
TGI [12]: 11 µM
GI50 [13]: 1.66 µM
TGI [13]: 3.54 µM
GI50 [14]: 1.94 µM
TGI [14]: 3.51 µM
GI50 [15]: 1.12 µM
TGI [15]: 3.97 µM
GI50 [16]: 3.48 µM
TGI [16]: 12.2 µM
GI50 [17]: 3.16 µM
TGI [17]: 11.1 µM
GI50 [18]: 1.6 µM
TGI [18]: 3.95 µM
GI50 [19]: 1.56 µM
TGI [19]: 5.94 µM
GI50 [20]: 1.47 µM
TGI [20]: 3.54 µM
GI50 [21]: 1.8 µM
TGI [21]: 6.25 µM
GI50 [22]: 3.06 µM
TGI [22]: 11.7 µM
GI50 [23]: 2.06 µM
TGI [23]: 6.6 µM
GI50 [24]: 1.61 µM
TGI [24]: 4.07 µM
GI50 [55]: 1.69 µM
TGI [55]: 5.03 µM
GI50 [25]: 2.46 µM
TGI [25]: 9.9 µM
GI50 [26]: 0.77 µM
TGI [26]: 2.25 µM
GI50 [27]: 0.771 µM
TGI [27]: 2.06 µM
GI50 [28]: 2.72 µM
TGI [28]: 8.67 µM
GI50 [29]: 1.35 µM
TGI [29]: 3.09 µM
GI50 [30]: 1.01 µM
TGI [30]: 2.31 µM
GI50 [31]: 1.99 µM
TGI [31]: 12.7 µM
GI50 [32]: 4.12 µM
TGI [32]: 23 µM
GI50 [33]: 2.98 µM
TGI [33]: 10.2 µM
GI50 [34]: 1.86 µM
TGI [34]: 3.83 µM
GI50 [35]: 0.687 µM
TGI [35]: 2.07 µM
GI50 [36]: 12.8 µM
TGI [36]: 26.1 µM
GI50 [37]: 1.7 µM
TGI [37]: 5.24 µM
GI50 [38]: 2.58 µM
TGI [38]: 7.47 µM
GI50 [39]: 1.29 µM
TGI [39]: 2.8 µM
GI50 [40]: 1.99 µM
TGI [40]: 4.11 µM
GI50 [41]: 0.549 µM
TGI [41]: 1.89 µM
GI50 [42]: 1.64 µM
TGI [42]: 3.87 µM
GI50 [43]: 1.51 µM
TGI [43]: 2.95 µM
GI50 [44]: 1.2 µM
TGI [44]: 2.96 µM
GI50 [45]: 2.12 µM
TGI [45]: 7.66 µM
GI50 [46]: 1.82 µM
TGI [46]: 4.45 µM
GI50 [47]: 0.663 µM
TGI [47]: 2.56 µM
GI50 [48]: 1.66 µM
TGI [48]: 3.18 µM
GI50 [56]: 1.54 µM
TGI [56]: 3.02 µM
GI50 [49]: 1.57 µM
TGI [49]: 3.07 µM
GI50 [50]: 1.54 µM
TGI [50]: 3.7 µM
GI50 [51]: 0.476 µM
TGI [51]: 4.36 µM
GI50 [52]: 1.42 µM
TGI [52]: 3.18 µM
GI50 [53]: 1.7 µM
TGI [53]: 3.45 µM

— PubChem BioAssay (NCI)
